Experimental data published in patent EP0116444A2, “Improvements in or relating to benzazepine derivatives” (ELI LILLY AND COMPANY, priority 1983, dated 1984).
Counter-ions that a name gives are not always drawn. Like-named read-outs stand apart in the source and are kept apart here.

System: spontaneously hypertensive rats
Test: Determination of antihypertensive activity (blood pressure and heart rate) in anesthetized spontaneously hypertensive rats
Assay type: in vivo
Conditions: 10 mg./kg. i.p. in aqueous solution, anesthetized spontaneously hypertensive male rats, average of two or more experiments; for change in vivo at 10 mg/kg: Rattus norvegicus, ip
Procedure: Spontaneously hypertensive male rats were anesthetized with methoxyflurane and α-chloralose (120 mg./kg., i.v.). An aqueous solution of the compound of formula I to be tested was administered i.p. to the animal following a 15-20 minute equilibrium period. Systemic arterial blood pressure was measured from the right carotid artery via a Statham P23 ID pressure transducer and recorded on a Model R411 Beckman Dynograph recorder. Heart rate was recorded with a Beckman 9857B cardiotachometer triggered by the pulse pressure. Mean arterial pressure was calculated as the diastolic pressure plus one third of the pulse pressure. Antihypertensive responses were measured at the maximal reduction in blood pressure occurring within 30 minutes after drug administration as compared to the baseline measurements taken prior to administration of the compound. The effect on heart rate was determined at the same time the maximum reduction in blood pressure was seen and was also compared with the baseline heart rate prior to compound administration. The results in Table I are reported as the maximal reduction in blood pressure and the corresponding effect on heart rate for certain compounds of formula I. The results are the average of two or more experiments.

[1] = heart rate at the time of maximum reduction in blood pressure vs pre-treatment baseline, minus = decrease
[2] = maximal reduction in mean arterial blood pressure within 30 minutes of compound administration vs pre-treatment baseline, minus = reduction
[3] = maximal reduction in mean arterial blood pressure within 30 minutes of compound administration vs pre-treatment baseline, minus = reduction, read-out: Effect on blood pressure
[4] = heart rate at the time of maximum reduction in blood pressure vs pre-treatment baseline, minus = decrease, read-out: Effect on heart rate

Compound | Effect on heart rate [1] | Effect on blood pressure [2] | change in vivo at 10 mg/kg [3] | change in vivo at 10 mg/kg [4]
2-Amino-7,8-dimethoxy-lH-3-benzazepine [Example 5] | -21.0% | -43.0% |  | 
2-Amino-7,8-dimethoxy-lH-3-benzazepine hydrochloride [Example 6] | -15.0% | -56.0% |  | 
CCc1cc2c(cc1CC)CC(N)=NC=C2 [Example 1, 2-Amino-7,8-diethyl-1H-3-benzazepine hydrochloride] |  |  | -24% | 
Cc1cc2c(cc1C)CC(N)=NC=C2 [Example 2, 2-Amino-7,8-dimethyl-lH-3-benzazepine hydrochloride] |  |  | -46.7% | -21.7%
NC1=NC=Cc2cc3ccccc3cc2C1 [Example 3, 2-Amino-lH-naphth[2,3-d]azepine] |  |  | -31% | -20%
COc1ccc2c(c1)CC(N)=NC=C2 [Example 4, 2-Amino-8-methoxy-1H-3-benzazepine hydrochloride] |  |  | -29.5% | -23.5%
CCOc1cc2c(cc1OC)CC(N)=NC=C2 [Example 7, 2-Amino-7-ethoxy-8-methoxy-lH-3-benzazepine hydrochloride] |  |  | -36% | -3%
COc1cc2c(cc1C)CC(N)=NC=C2 [Example 8, 2-Amino-7-methoxy-8-methyl-1H-3-benzazepine hydrochloride] |  |  | -54% | -31%
NC1=NC=Cc2cc3c(cc2C1)OCO3 [Example 9, 2-Amino-7,8-(methylenedioxy)-lH-3-benzazepine hydrochloride] |  |  | -19% | -11%
NC1=NC=Cc2ccc([N+](=O)[O-])cc2C1 [Example 10, 2-Amino-8-nitro-lH-3-benzazepine] |  |  | -55% | -22%
CNC1=NC=Cc2cc(OC)c(OC)cc2C1 [Example 11, 2-Methylamino-7,8-dimethoxy-lH-3-benzazepine] |  |  | -36% | -7%
COc1cc2c(cc1OC)CC(NC1CC1)=NC=C2.Cl [Example 12, 2-Cyclopropylamino-7,8-dimethoxy-lH-3-benzazepine hydrochloride] | -8.0% | -25.0% |  | 
COc1cc2c(cc1OC)C(C)C(N)=NC=C2 (stereo not drawn) [Example 13, 1-Methyl-2-amino-7,8-dimethoxy-1H-3-benzazepine hydrochloride] |  |  | -22% | -2%
CCOc1cc2c(cc1OCC)CC(N)=NC=C2 [Example 14, 2-Amino-7,8-diethoxy-lH-3-benzazepine hydrochloride] |  |  | -18% | -8%
COc1cc2c(cc1OC)CC(NC(C)C)=NC=C2 [Example 15, 2-Isopropylamino-7,8-dimethoxy-lH-3-benzazepine hydrochloride] |  |  | -10% | -3%
CNC1=NC=Cc2ccccc2C1 [Example 16, 2-Methylamino-1H-3-benzazepine] |  |  | -8% | -9%
CCC(C)NC1=NC=Cc2ccccc2C1 (stereo not drawn) [Example 17, 2-Sec-butylamino-lH-3-benzazepine] |  |  | -22% | -13%
CC(C)CNC1=NC=Cc2ccccc2C1 [Example 18, 2-Isobutylamino-lE-3-benzazepine] |  |  | -17% | -7%
C1=Cc2ccccc2CC(NC2CC2)=N1 [Example 19, 2-Cyclopropylamino-lH-3-benzazepine] |  |  | -20% | -8%

Compound | Effect on heart rate [1] | Effect on blood pressure [2] | change in vivo at 10 mg/kg [3] | change in vivo at 10 mg/kg [4]
C=CCNC1=NC=Cc2ccccc2C1 [Example 20, 2-Allylamino-lE-3-benzazepine] |  |  | -20% | -15%
CC(C)NC1=NC=Cc2ccccc2C1 [Example 21, 2-Isopropylamino-lH-3-benzazepine] |  |  | -16% | -6%
CCNC1=NC=Cc2cc(OC)c(OC)cc2C1 [Example 22, 2-Ethylamino-7,8-dimethoxy-lH-3-benzazepine] |  |  | -13% | 2%
C=CCNC1=NC=Cc2cc(OC)c(OC)cc2C1 [Example 23, 2-Allylamino-7,8-dimethoxy-lH-3-benzazepine] |  |  | -15% | -5%
Cc1ccc2c(c1)CC(N)=NC=C2 [Example 24, 2-Amino-8-methyl-lH-3-benzazepine] |  |  | -35% | -22%
CCOc1cc2c(cc1OC)CC(NC1CC1)=NC=C2 [Example 25, 2-Cyclopropylamino-7-ethoxy-8-methoxy-lH-3-benzazepine hydrochloride] |  |  | -9% | -6%
Cc1ccc(C)c2c1C=CN=C(N)C2 [Example 26, 2-Amino-6,9-dimethyl-lH-3-benzazepine hydrochloride] |  |  | -44% | 
COc1cc2c(cc1O)CC(N)=NC=C2 [Example 27, 2-Amino-7-methoxy-8-hydroxy-lE-3-benzazepine hydrochloride] |  |  | -29% | -12%
COc1cc2c(cc1O)C=CN=C(N)C2 [Example 28, 2-Amino-7-hydroxy-8-methoxy-1H-3-benzazepine hydrochloride] |  |  | -11% | 0%
C#CCNC1=NC=Cc2cc(OC)c(OC)cc2C1 [Example 29, 2-Propargylamino-7,8-dimethoxy-lH-3-benzazepine hydrochloride] |  |  | -29% | -11%
NC1=NC=Cc2ccc3ccccc3c2C1 [Example 30, 2-Amino-1H-naphth[1,2-d]azepine hydrochloride] |  |  | -37% | -6%
NC1=NC=Cc2cc3c(cc2C1)CCC3 [Example 31, 2-Amino-1,7,8,9-tetrahydroindeno[5,6-d]-azepine hydrochloride] |  |  | -40% | -16%
COc1ccc(OC)c2c1C=CN=C(N)C2 [Example 32, 2-Amino-6,9-dimethoxy-lH-3-benzazepine hydrochloride] |  |  | -32% | -13%
COc1cc(C)c(OC)c2c1CC(N)=NC=C2 [Example 33, 2-Amino-7-methyl-6,9-dimethoxy-lH-3-benzazepine hydrochloride] |  |  | -47% | -43%
NC1=NC=Cc2cc3c(cc2C1)CCCC3 [Example 34, 2-Amino-7,8,9,10-tetrahydro-1H-naphth[2,3-d]-azepine hydrochloride] |  |  | -30% | -15%
NC1=NC=Cc2ccc3c(c2C1)CCCC3 [Example 35, 2-amino-8,9,10,11-tetra-hydro-lH-naphth[1,2-d]azepine hydrochloride] |  |  | -33% | -12%
COc1cc2c(cc1F)CC(N)=NC=C2 [Example 36, 2-Amino-8-fluoro-7-methoxy-1H-3-benzazepine hydrochloride] |  |  | -31% | -8%
CCOc1cc2c(cc1OC)C=CN=C(N)C2 [Example 37, 2-Amino-8-ethoxy-7-methoxy-lH-3-benzazepine hydrochloride] |  |  | -48% | -23%
